Counter-ions that a name gives are not always drawn.
How the values were obtained:
NALM-16 = experiment: Growth inhibition, Alamar Blue; type: cell-based; details: Homo sapiens, NALM16, 72 h; NALM-16, B-ALL; 3 days
Procedure: (§1) Cell lines were obtained from American Type Culture Collection (ATCC) and maintained according to the supplier's instructions, and from Dr. Mark Minden (Princess Margaret Cancer Centre, Toronto, Canada). Short tandem repeat (STR) profiling was used to verify authenticity of the cell lines. Peripheral blood from healthy human donors was obtained from the Hematology Malignancy Tissue Bank at the University Health Network. Peripheral blood mononuclear cells (PBMC) were prepared from the blood by density gradient centrifugation using Ficoll-Paque PLUS by manufacturer's instructions (GE Healthcare Life Sciences). […] Compound (I) tartrate was prepared as a 10 mM stock solution in 100% DMSO. The stock solution was diluted with RPMI-1640 (Invitrogen) containing 10% FBS (fetal bovine serum) such that the final concentrations ranged from 300 fM to 300 μM. Aliquots (20 μL) from each concentration were overlaid to 180 μL of pre-seeded cells to achieve final concentrations of 30 fM to 30 μM. After 3 days, cell growth in each well was assessed by Alamar Blue assay reagent (Invitrogen). Raw fluorescence (λEM=590 nm) values were adjusted by subtracting the average of the baseline readings from untreated cells assessed one day after cell seeding. Relative cell growth was calculated by comparing to DMSO-treated cells. The concentrations at which cell growth was inhibited by 50% (growth inhibition IC50) were calculated using GraphPad PRISM software (GraphPad Software Inc.).

[1] = tested on: SLP-76 Ser376 phosphorylation; experiment: Phospho-SLP-76 (Ser376) sandwich ELISA in anti-CD3 stimulated Jurkat E6.1 cells; type: cell-based; details: Homo sapiens, 3 hours pretreatment, anti-CD3 (OKT3) 5 μg/mL 15 minutes
Procedure: Jurkat E6.1 cells were starved overnight in RPMI-1640 medium (Invitrogen) without fetal bovine serum (FBS). Starved cells (2×10^6 per sample in 1 mL) were pretreated with Compound (I) tartrate for 3 hours and then stimulated with 5 μg/mL anti-CD3 antibody (clone OKT3) for 15 minutes. Cells were immediately lysed in cell lysis buffer plus protease and phosphatase inhibitors, and then assayed for SLP-76 Ser376 phosphorylation with the PathScan Phospho-SLP-76 (Ser376) Sandwich ELISA Kit according to the kit instructions (Cell Signaling Technology, Inc.). Duplicate data points for each concentration were collected (Molecular Devices M5). Raw absorbance (A=450 nm) values were background subtracted and then individual values were averaged for each Compound (I) tartrate concentration. The cellular EC50 was determined using a simple one-site dose-response curve fitting model (XLfit4, IDBS).

[2] = tested on: Wild-type FLT3-expressing 32D cells; experiment: Growth inhibition, 32D transfectants; type: cell-based; details: 32D transfectant wild-type FLT3, 50 ng/ml human FLT3 ligand
Procedure: as §1, with “The concentrations at which cell growth was inhibited by 50% (growth inhibition IC50) were calculated using GraphPad PRISM software (GraphPad Software Inc.).” left out

[3] = tested on: FLT3-ITD-expressing 32D cells; experiment: Growth inhibition, 32D transfectants; type: cell-based; details: 32D transfectant FLT3-ITD, without cytokines
Procedure: as §1, with “The concentrations at which cell growth was inhibited by 50% (growth inhibition IC50) were calculated using GraphPad PRISM software (GraphPad Software Inc.).” left out

c-KIT (CD117) = experiment: Flow cytometry, cell surface c-KIT in primary human AML cells; type: cell-based; details: FLT3-ITD positive primary AML cells, viable CD14− blasts, 48 and 72 hours, dose-dependent
Procedure: Patient samples were obtained from Dr. Mark Minden (Princess Margaret Cancer Centre, Toronto, Ontario, Canada). FLT3-ITD positive AML cells were treated with the indicated concentrations of Compound (I) for 48 and 72 hours at 37° C. and 5% CO2 and stained with APC-CD45, PECy7-CD38, APC/Fire 750-CD33, PerCP-CD14, PE-FLT3 (Beckman Coulter, Cat. IM2234U), PE/Dazzle 594-CD117 (BioLegend, Cat. #313226) or isotype control antibodies and analyzed on a BD LSRFortessa II flow cytometry analyzer. Data were analyzed using FlowJo software and representative data are shown. Compound (I) treatment increases the cell surface expression of FLT3 and c-KIT in a dose-dependent manner in viable CD14^− AML blast cells. Similar results were obtained in additional FLT3-ITD positive primary AML samples (data not shown).

[4] = tested on: PARP cleavage (apoptotic cell death); experiment: Immunoblot of PARP cleavage in MV-4-11 cells; type: cell-based, human; details: 4 hours
Procedure: (§2) MV-4-11 cells (FLT3 LOH, FLT3-ITD positive cells) were treated with the indicated concentrations of Compound (I) tartrate for 4 hours at 37° C. and 5% CO2. Lysates were analyzed by immunoblot analysis with antibodies against FLT3 (Cell Signaling Technology, Inc., Cat. #3462), PARP (Cell Signaling Technology, Inc., Cat. #9542) and GAPDH (Millipore, Cat. #MAB374). Protein bands were visualized using a LI-COR Odyssey near infrared imager and representative data are shown. Compound (I) tartrate treatment increases the expression of the mature 160 kDa form of FLT3-ITD in MV-4-11 cells in a dose-dependent manner. Apoptotic cell death as measured by PARP cleavage was induced by Compound (I) tartrate treatment.

[5] = tested on: mature 160 kDa form of FLT3-ITD; experiment: Immunoblot of FLT3 in MV-4-11 cells; type: cell-based, human; details: 4 hours, dose-dependent
Procedure: as §2

FLT3 (D835Y) = molecular target: T1, FLT3 (D835Y) (Homo sapiens, UniProt P36888, D835Y); experiment: Radiometric HotSpot kinase assay, FLT3 (D835Y); type: biochemical; details: ATP 20 μM; peptide substrate 5 μM
T1 construct: purchased Reaction Biology Corp. (Malvern, PA, USA)
Procedure: Kinase IC50 values were determined by Reaction Biology Corp. (Malvern, PA, USA) in the Radiometric HotSpot™ Assay using recombinantly expressed kinase enzymes. Compound (I) was tested in a 10-dose IC50 curve in duplicate. Enzymes were tested at the Km [ATP] for each enzyme using the Reaction Biology binning structure. Kinase reactions were initiated by the addition of protein or peptide substrate and [γ-^33P]-adenosine triphosphate (ATP). Phosphorylated substrates were captured by spotting of the reaction mix on filter membranes, and enzymatic activity was quantified by liquid scintillation counting. Substrates and ATP concentrations are as follows: • FLT3: Peptide substrate, [EAIYAAPFAKKK], 5 μM: ATP 50 μM • FLT3-ITD (internal tandem duplication): Peptide substrate, [EAIYAAPFAKKK], 20 μM: ATP, 30 μM • FLT3 (D835Y): Peptide substrate, [EAIYAAPFAKKK], 5 μM: ATP 20 μM • TAK1: Casein, 1 mg/mL: ATP, 20 μM

**Q.** Which IC50 (NALM-16) does the source give for `CN1CCN(c2ccc3nc(-c4c(N)c5ccsc5[nH]c4=O)[nH]c3c2)CC1` [Compound (I) tartrate, 4-amino-5-(6-(4-methylpiperazin-1-yl)-1H-benzo[d]imidazol-2-yl)thieno[2,3-b]pyridin-6(7H)-one] here?
**A.** The IC50 was 1100 nM.

**Q.** What about the EC50 [1] of the same compound?
**A.** The EC50 was 24 nM.

**Q.** And the IC50 [2]?
**A.** The IC50 was 1650 nM.

**Q.** What about the IC50 [3] of the same compound?
**A.** The IC50 was 6.3 nM.

**Q.** What about the “cell surface expression of c-KIT (CD117)” value (c-KIT (CD117)) of the same compound?
**A.** Its value is “increases”.

**Q.** And the “apoptotic cell death as measured by PARP cleavage” value [4]?
**A.** Its value is “induced”.

**Q.** What about the “expression of the mature 160 kDa form of FLT3-ITD” value [5] of the same compound?
**A.** The value was “increases”.

**Q.** And the IC50 (FLT3 (D835Y))?
**A.** The IC50 was 0.023 nM.
